Consider 2 compounds from patent publication US4689218A, “Effervescent composition with analgesic activity” (priority 1985, dated 1987).

“Also recorded” adds a separate entry of the source.

One data set concerns oral and gastric mucosa. The following applies: oral administration (b7), mucosa of the mouth, aqueous suspension (b9); cited from earlier work.
The conditions of data set [1]: oral route, tablet; cited from earlier work.
The conditions of data set [2]: cited from earlier work.
Data set [3] in a line: Stability (degradation, colour) of lysine-containing preparation. It counts as physicochemical. The note with it: larger amounts of lysine (more than 30-40% of arginine substituted).

For `CC(C)Cc1ccc(C(C)C(=O)O)cc1` (stereo not shown) [Ibuprofen, 2-(4-isobutyl-phenyl)-propionic acid], in the data set with oral and gastric mucosa, the Irritability of mucosa result is recorded as “some irritability of gastric mucosa; also recorded: irritant for the mucosa of the mouth”. Besides, in data set [1], the Kinetics of absorption result is listed as “relatively slow kinetics of absorption”. Besides, the Solubility in water result in data set [2] is “very low solubility in water”.

Turning to `NCCCC[C@H](N)C(=O)O` [lysine], in data set [3], the “Degradation / brown colour of the pharmaceutical preparation” value is reported as “easily degrades making of a brown colour the pharmaceutical preparation”.
